Assay results taken from patent US20240238366A1, “alpha-SYNUCLEIN AGGREGATION INHIBITOR, PHARMACEUTICAL COMPOSITION FOR alpha-SYNUCLEIN DISEASE, AND USE THEREOF” (O-FORCE CO., LTD., priority 2021, published 2024).
Ends that are not written are not given here.

Experiments:
[1] = test system: mouse neuroblastoma (Neuro2a) cells; assay: Cell viability by WST-8 method after addition of incubated reaction solutions (Example B6); format: cell-based; details: reaction solution containing only the aggregation inhibiting peptide
Description: Then, reaction solutions with the following compositions were prepared using these solutions. The reaction solutions were incubated at 37° C. for 24 hours.
Meanwhile, 0.15 mL of medium per well was placed in the wells of a 96-well plate, and mouse neuroblastoma (Neuro2a) cells were seeded to be 2.66×10^4 cells per well. After incubation at 37° C. for 24 hours, 50 μL of each reaction solution after the incubation was added per well and further incubated at 37° C. for 24 hours. The cell viability (%) was then measured for each well by the WST-8 method.

[2] = Solubility in aqueous solvent, visual check for precipitation; format: physicochemical; details: room temperature
Description: For each of the example peptides (Syn FPs) and the comparative example peptides, a 1 mmol/L peptide solution was prepared using MilliQ water as an aqueous solvent.
Each peptide was dissolved in a saline solution to prepare a 1 mmol/L sample solution.

[3] = test system: Parkinson's disease model mice; assay: Rota-Rod test in Parkinson's disease model mice produced with Syn61-84 (Example B4); format: in vivo
Description: (§1) As a control, a saline solution (Saline) was used.
(§2) The aggregation inhibiting peptide was not administered to the Saline administration group (n=3).
(§3) The short-term memory was evaluated through a Y-maze test on Day 14, Day 56, and Day 74, and the motor function was evaluated through a Rota-Rod test on Day 21, Day 55, Day 63, and Day 70. […] The Rota-Rod test was conducted using a rotor-rod device for mice (product name: MK-670, manufactured by Muromachi Kikai Co., Ltd.), with the rotational speed of the rotor set at 10 or 20 rpm, and the time until a mouse on the rotating rotor fell was measured.

Syn61-84 aggregates = Syn61-84 aggregates (Homo sapiens, UniProt P37840); assay: Dissociation of Syn61-84 aggregates, ThT fluorescence (Example B3); format: biochemical; details: peptide 0.1, 1, 10, 100 μmol/L; 0.1 mM preformed Syn61-84 aggregates; 37° C. 24 hours
Description: Then, reaction solutions with the following compositions were prepared and each dispensed into wells such that the amount of the reaction solution per well was 200 μL, and, after the reaction solutions were incubated at 37° C. for 24 hours, 10 μL of 2 mmol/L ThT was added per well, and the fluorescence intensity was measured using a measurement device (product name Cytation5, manufactured by BioTek) (n=3). The measurement wavelengths were set such that the excitation wavelength (ex) was 444 nm and the fluorescence wavelength (em) was 480 nm. In the following compositions, X mmol/L peptides (aggregation inhibiting peptides: YS-11 and LYZA-3) were prepared using MilliQ water, and the concentration X mmol/L was set to 0.1 μmol/L, 1 μmol/L, 10 μmol/L, and 100 μmol/L in the reaction solutions. As a control, a reaction solution to which water was added instead of the peptide YS-11 and the peptide LYZA-3 was also measured in the same way.

[4] = test system: Parkinson's disease model mice; assay: Y-maze test in Parkinson's disease model mice produced with Syn61-84 (Example B4); format: in vivo; details: Day 74; 4 μL of 1 mmol/L inhibiting peptide on Day 56 to Syn61-84 mice
Description: as §1, §2, §3

Syn61-84 = Syn61-84 (Homo sapiens, UniProt P37840); assay: Inhibition of aggregate formation of Syn61-84, ThT fluorescence (Example B2); format: biochemical
Description: Specifically, reaction solutions with the following compositions were prepared and each dispensed into wells such that the amount of the reaction solution per well was 200 μL. In the following compositions, X mmol/L peptides (aggregation inhibiting peptide solutions: YS-11 and LYZA-3) were prepared using MilliQ water, and the concentration X mmol/L was set to 1 μmol/L, […], and 100 μmol/L in the reaction solutions. […] After the reaction solutions were incubated at 37° C. for 24 hours, 10 μL of 2 mmol/L ThT was added per well, and the fluorescence intensity was measured using a measurement device (product name: Cytation5, manufactured by BioTek) (n=3). The measurement wavelengths were set such that the excitation wavelength (ex) was 444 nm and the fluorescence wavelength (em) was 480 nm. As a control, a reaction solution to which water was added instead of the aggregation inhibiting peptides (YS-11 and LYZA-3) was also measured in the same way.

RETLVYLTHLD [YS-11]
cell viability (control taken as 100%) [1]: no effect on the cell viability

VVTGVTAVAQKTVEG [Syn70-84, reference compound]
solubility (visual precipitation) ([2]; 1 mmol/L in saline solution): No precipitation

YSNFNTDY (aggregation inhibitor peptide) [LYZA-3]
spent time (Rota-Rod) at 10 rpm ([3]; 10 rpm, RR-3 and RR-4 after inhibiting peptide on Day 56): significant increase | spent time (Rota-Rod) at 10 rpm versus Saline administration group ([3]; 10 rpm, RR-4): longer than that of the Saline administration group | spent time (Rota-Rod) ([3]; RR-3 and RR-4, after inhibiting peptide on Day 56 to Syn61-84 mice): increase in the spent time | fluorescence intensity (ThT) compared with the control (Syn61-84), dissociation of aggregates (Syn61-84 aggregates): fluorescence intensity decreased | alternation rate (Y-maze) compared with Saline administration group [4]: increase in the alternation rate | aggregation inhibition ability compared at the same concentration (formation of aggregates) (Syn61-84; comparison between FIGS. 4(A) and 4(B)): greater aggregation inhibition ability than the peptide YS-11 | fluorescence intensity (ThT) compared with the control (Syn61-84) (Syn61-84; peptide 1 μmol/L, 100 μmol/L, 0.1 mM Syn61-84, 37° C. 24 hours): decreased in a concentration-dependent manner

α-synuclein [full-length Syn]
solubility (visual precipitation) ([2]; 1 mmol/L in MilliQ water): precipitation of Syn was immediately visible
